Test results reported in patent US20210349097A1, “BIOMARKERS FOR A COMBINATION THERAPY COMPRISING LENVATINIB AND EVEROLIMUS” (Eisai R&D Management Co., Ltd., priority 2018, published 2021).

Legend:
Assay type in all cases: in vivo, human
[1] = tested on: metastatic renal cell carcinoma (RCC); assay: Phase 2 study in metastatic RCC after prior VEGF-targeted therapy: objective response rate (ORR) by composite biomarker score
Procedure: (§1) A Phase 2 study for lenvatinib was performed in patients with metastatic renal cell carcinoma (RCC) following a VEGF-targeted therapy. Patients having metastatic renal cell carcinoma after a prior VEGF-targeted therapy received lenvatinib mesylate (“lenvatinib”), everolimus, or the combination thereof until disease progression or development of unmanageable toxicities. A total of 153 subjects were randomized into 3 treatment arms to receive:
(§2) 1) 18 mg/day lenvatinib (as lenvatinib free base; the same shall apply hereinafter)+5 mg/day everolimus (Arm A [LEN/EVE treatment arm], N=51),
(§3) 2) lenvatinib 24 mg/day (Arm B [LEN treatment arm], N=52), or
(§4) 3) everolimus 10 mg/day (Arm C [EVE treatment arm], N=50).
(§5) Each Cycle consisted of 4 weeks (28 days)
(§6) Blood samples for biomarker assessments were collected from subjects in all 3 treatment arms (LEN/EVE, N=49; LEN, N=51; EVE, N=47; Total, N=147) at Cycle 1 Day 1(pre-treatment). In samples from 145 subjects (94.8% of all Intention to Treat [ITT] population; LEN/EVE, N=49; LEN, N=50; EVE, N=46), 40 candidate biomarkers shown in Table 1 were assayed using 19 preconfigured CustomMAP immunoassay panels and measured by a multiplex flow cytometry-based platform by the manufacturer (Multi-Analyte Profile (MAP)) at a Myriad RBM (Austin, Tex., USA).
(§7) For each biomarker integrated into the CBS, a value of 1 was assigned if the respective baseline biomarker level fell within the range determined to associate with longer survival in the single biomarker cutoff analysis; a value of 0 was assigned if the respective baseline biomarker level was categorized in the range associated with shorter survival. The sum of the individual values (0 vs. 1 for each of the 5 biomarkers) was computed as a CBS for each subject (range 0-5). Patients were then dichotomized per CBS as low and high groups (0 vs. 1-5, 0-1 vs. 2-5, 0-2 vs. 3-5, 0-3 vs. 4-5, and 0-4 vs. 5). Associations between the groups and PFS were explored using univariate Cox regression and the log-rank test with each of the selected dichotomization points in each treatment arm. Interaction P values were estimated by multivariate Cox regression analysis with treatment arm, baseline level and PFS. Associations between the groups and objective response rate (ORR) were also explored using Fisher's exact test.
as §7, with “the range previously determined to” for “the range determined to”, “longer survival on single biomarker” for “longer survival in the single biomarker”, “subject (range 0-5; high=favorable survival). Patients were” for “subject (range 0-5). Patients were”, “groups and OS were explored” for “groups and PFS were explored”, “level and OS. Associations between” for “level and PFS. Associations between”
(§8) For each biomarker integrated into the CBS, a value of 1 was assigned if the respective baseline biomarker level fell within the range determined to associate with longer survival in the single biomarker cutoff analysis; a value of 0 was assigned if the respective baseline biomarker level was categorized in the range associated with shorter survival. The sum of the individual values (0 vs. 1 for each of the 2 biomarkers) was computed as a CBS for each subject (range 0-2). […]

[2] = tested on: metastatic renal cell carcinoma (RCC); assay: Phase 2 study in metastatic RCC after prior VEGF-targeted therapy: progression free survival (PFS) by baseline serum biomarker / composite biomarker score
Procedure: as §1, §2, §3, §4, §5, §6
(§9) For baseline levels of each serum biomarker, correlation analyses with PFS were performed using univariate Cox regression in each of the 3 arms. Hazard ratio (HR) for biomarkers with continuous values was calculated as a ratio of hazards between measured values with one standard deviation (HR per standard deviation). Baseline serum IL-18BP levels were associated with PFS in the LEN/EVE arm (Table 2). In the following tables, FDR refers to False Discovery Rate, MST refers to Median Survival Time and CI refers to Confidence Interval.
For IL-18BP, dichotomized analysis was performed to correlate baseline serum biomarker levels in subjects with low and high levels with PFS in the 3 arms. The cutoff points were median, first tertile, second tertile, first quartile or third quartile. Association between the groups and PFS was explored using univariate Cox regression and the log-rank test with each of the selected cutoff points. At the second tertile cutoff point, median PFS for the high IL-18BP group (5.6 months) was shorter than that for the low group (17.5 months) in the LEN/EVE arm (Table 3).
as §7, §8

[3] = tested on: metastatic renal cell carcinoma (RCC); assay: Phase 2 study in metastatic RCC after prior VEGF-targeted therapy: overall survival (OS) by baseline serum biomarker / composite biomarker score
Procedure: as §1, §2, §3, §4, §5, §6
as §9, with “OS” for “PFS”, “FGF-21, ICAM-1, and M-CSF” for “IL-18BP”, “4).” for “2). In the following tables, FDR refers to False Discovery Rate, MST refers to Median Survival Time and CI refers to Confidence Interval.”
For FGF-21, ICAM-1, and M-CSF, dichotomized analyses were performed to correlate baseline serum biomarker levels in subjects with low and high levels with OS in the 3 arms using univariate Cox regression and the log-rank test at median cutoff point. Low baseline levels of FGF-21, ICAM-1, and M-CSF were associated with longer OS in the LEN/EVE arm (Table 5).
as §7, with “the range previously determined to” for “the range determined to”, “longer survival on single biomarker” for “longer survival in the single biomarker”, “subject (range 0-5; high=favorable survival). Patients were” for “subject (range 0-5). Patients were”, “groups and OS were explored” for “groups and PFS were explored”, “level and OS. Associations between” for “level and PFS. Associations between”
as §7, with “2” for “5”, “0-2).” for “0-5).”, “1-2 and” for “1-5,”, “2).” for “2-5, 0-2 vs. 3-5, 0-3 vs. 4-5, and 0-4 vs. 5).”, “OS” for “PFS”, “Interaction P values were estimated by multivariate Cox regression analysis with treatment arm, baseline level and PFS. Associations between the groups and objective response rate (ORR) were also explored using Fisher's exact test.” left out

[4] = 5-marker CBS (HGF, MIG, IL-18BP, IL-18, ANG-2)
[5] = 5-marker CBS (TIMP-1, M-CSF, IL-18BP, ANG-2, VEGF-A)

CO[C@H]1C[C@@H]2CC[C@@H](C)[C@@](O)(O2)C(=O)C(=O)N2CCCC[C@H]2C(=O)O[C@H]([C@H](C)C[C@@H]2CC[C@@H](OCCO)[C@H](OC)C2)CC(=O)[C@H](C)/C=C(\C)[C@@H](O)[C@@H](OC)C(=O)[C@H](C)C[C@H](C)/C=C/C=C/C=C/1C [EVE, (1R,9S,12S,15R,16E,18R,19R,21R,23S,24E,26E,28E,30S,32S,35R)-1,18-dihydroxy-12-{(1R)-2-[(1S,3R,4R)-4-(2-hydroxyethoxy)-3-methoxycyclohexyl]-1-methylethyl}-19,30-dimethoxy-15,17,21,23,29,35-hexamethyl-11,36-dioxa-4-aza-tricyclo[30.3.1.0^4,9]hexatriaconta-16,24,26,28-tetraene-2,3,10,14,20-pentaone]
ORR, CBS High (1-2) ([1]; 2-marker CBS (IL-18BP, ANG-2)): 6.9%
ORR, CBS Low (0) ([1]; 2-marker CBS (IL-18BP, ANG-2)): 0.0%
ORR, CBS High (3-5) [1, 4]: 5.0%
ORR, CBS Low (0-2) [1, 4]: 4.2%
ORR, CBS High (3-5) [1, 5]: 5.3%
ORR, CBS Low (0-2) [1, 5]: 4.0%
mPFS, CBS High (1-2) ([2]; 2-marker CBS (IL-18BP, ANG-2)): 5.5 mo
mPFS, CBS Low (0) ([2]; 2-marker CBS (IL-18BP, ANG-2)): 3.0 mo
mPFS, high CBS score (1-2) ([2]; 2-marker CBS (IL-18BP, ANG-2)): 5.5 months
mPFS, CBS High (3-5) [2, 4]: 3.6 mo
mPFS, CBS Low (0-2) [2, 4]: 5.5 mo
mPFS, high CBS score (3-5) [2, 4]: 3.6 months
MST (median PFS), IL-18BP High Group ([2]; baseline serum IL-18BP high, cutoff quantile 0.67 (second tertile)): 3.5 months
MST (median PFS), IL-18BP Low Group ([2]; baseline serum IL-18BP low, cutoff quantile 0.67 (second tertile)): 5.5 months
HR (95% CI) PFS, IL-18BP low and high groups ([2]; cutoff quantile 0.67 (second tertile), univariate Cox regression): 1.194
HR (95% CI), baseline IL-18BP with PFS ([2]; univariate Cox regression, HR per standard deviation of baseline serum IL-18BP): 1.207
HR OS, high CBS (1-2) vs low CBS (0) within arm ([3]; 2-marker CBS (IL-18BP, ANG-2)): 0.461
mOS, CBS High (1-2) ([3]; 2-marker CBS (IL-18BP, ANG-2)): 17.5 mo
mOS, CBS Low (0) ([3]; 2-marker CBS (IL-18BP, ANG-2)): 11.4 mo
mOS, high CBS score (1-2) ([3]; 2-marker CBS (IL-18BP, ANG-2)): 17.5 months
mOS, low CBS score (0) ([3]; 2-marker CBS (IL-18BP, ANG-2)): 11.4 months
mOS, CBS High (3-5) [3, 5]: 17.4 mo
mOS, CBS Low (0-2) [3, 5]: 15.0 mo
mOS, high CBS score (3-5) [3, 5]: 17.4 months
MST (median OS), FGF-21 High ([3]; baseline FGF-21 high, cutoff quantile 0.5 (median)): 19.5
MST (median OS), FGF-21 Low ([3]; baseline FGF-21 low, cutoff quantile 0.5 (median)): 15.3
MST (median OS), ICAM-1 High ([3]; baseline ICAM-1 high, cutoff quantile 0.5 (median)): 18.5
MST (median OS), ICAM-1 Low ([3]; baseline ICAM-1 low, cutoff quantile 0.5 (median)): 13.3
MST (median OS), M-CSF High ([3]; baseline M-CSF high, cutoff quantile 0.5 (median)): 15.4
MST (median OS), M-CSF Low ([3]; baseline M-CSF low, cutoff quantile 0.5 (median)): 17.2
HR (95% CI) OS, FGF-21 low and high groups ([3]; cutoff quantile 0.5 (median)): 0.741
HR (95% CI) OS, ICAM-1 low and high groups ([3]; cutoff quantile 0.5 (median)): 0.66
HR (95% CI) OS, M-CSF low and high groups ([3]; cutoff quantile 0.5 (median)): 1.146
HR (95% CI), baseline FGF-21 with OS ([3]; univariate Cox regression, HR per standard deviation of baseline serum FGF-21): 0.996
HR (95% CI), baseline ICAM-1 with OS ([3]; univariate Cox regression, HR per standard deviation of baseline serum ICAM-1): 1.017
HR (95% CI), baseline M-CSF with OS ([3]; univariate Cox regression, HR per standard deviation of baseline serum M-CSF): 1.366
